Measurements: US12410262B2, “Peptide conjugates of cytotoxins as therapeutics” (Cybrexa 2, Inc., priority 2019, dated 2025)
Like-named read-outs stand apart in the source and are kept apart here. Residues, ends and D or L forms follow the SMILES beside them. *: point of attachment. X4 = CC[C@@]1(O)C(=O)OCc2c1cc1n(c2=O)Cc2c-1nc1cc(F)c(C)c3c1c2[C@@H](NC(=O)O[C@@H](C)[C@H](C)S*)CC3; X1 = CC[C@@]1(O)C(=O)OCc2c1cc1n(c2=O)Cc2c-1nc1cc(F)c(C)c3c1c2[C@@H](NC(=O)O[C@H](C)[C@H](C)S*)CC3

Tests used:
Assay in all cases: cells
DLD-1 WT cells = type: cell-based
Description: (§1) Cells were plated in 96 well black walled-clear bottom plates (Griener), DLD-1 WT cells at 2500 cells per well, FaDu, and HeLa cells at 5000 cells per well, and HCT116 at 3000 cells per well, in growth media containing 10% FBS. Cells were allowed to adhere at room temperature for 60 minutes before returning to a 37 C, 5% CO2 incubator. After 24 hours, media was removed and replaced with fresh growth media containing various drug concentrations. Each drug concentration was added in triplicate. Non-drug treated controls contained growth media only. Cells were returned to the incubator. Ninety-six hours after addition of drug, cells were fixed with 4% paraformaldehyde for 20 minutes and stained with Hoechst at 1 ug/mL. The plates were imaged on a Cytation 5 auto imager (BioTek) and cells were counted using CellProfiler (http://cellprofiler.org). The percent cell growth delay was calculated and data plotted using GraphPad Prism

FaDu = type: cell-based
Description: as §1

HeLa cells = type: cell-based
Description: as §1

HCT116 = type: cell-based, human
How it was run: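 DLD-1 WT (2500/well), FaDu and HeLa (5000/well) and HCT116 (3000/well) were grown in 10% FBS media and dosed in triplicate 24 h after plating. After 96 h of drug exposure at 37 °C, cells were fixed, Hoechst-stained and counted by imaging; percent growth delay was calculated versus untreated controls.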

| Compound | IC50 (DLD-1 WT cells; 96 h) | IC50 (FaDu; 96 h) | IC50 (HeLa cells; 96 h) | IC50 (HCT116; 96 h) | IC50 (DLD-1 WT cells; Homo sapiens, DLD-1 WT cells, 96 h after addition of drug, IC = incomplete curve, read-out: DLD-1 (IC50)) | IC50 (FaDu; Homo sapiens, FaDu cells, 96 h after addition of drug, read-out: FaDu (IC50)) | IC50 (HeLa cells; Homo sapiens, HeLa cells, 96 h after addition of drug, read-out: HeLa (IC50)) | IC50 (HCT116; Homo sapiens, HCT-116, HCT116 cells, 96 h after addition of drug, read-out: HCT116 (IC50)) |
| --- | --- | --- | --- | --- | --- | --- | --- | --- |
| CC[C@H](C)[C@H](NC(=O)[C@@H]1CCCN1C(=O)[C@H](CC(N)=O)NC(=O)[C@H](CCC(N)=O)NC(=O)[C@H](CCC(=O)O)NC(=O)[C@H](C)N)C(=O)N[C@@H](Cc1ccc(O)cc1)C(=O)N[C@@H](Cc1c[nH]c2ccccc12)C(=O)N[C@@H](C)C(=O)N[C@@H](CCCNC(=N)N)C(=O)N[C@@H](Cc1ccc(O)cc1)C(=O)N[C@@H](C)C(=O)N[C@@H](CC(=O)O)C(=O)N[C@@H](Cc1c[nH]c2ccccc12)C(=O)N[C@@H](CC(C)C)C(=O)N[C@@H](Cc1ccccc1)C(=O)N[C@H](C(=O)N[C@H](C(=O)N1CCC[C@H]1C(=O)N[C@@H](CC(C)C)C(=O)N[C@@H](CC(C)C)C(=O)N[C@@H](CC(C)C)C(=O)N[C@@H](CC(C)C)C(=O)N[C@@H](CC(=O)O)C(=O)N[C@@H](CC(C)C)C(=O)N[C@@H](C)C(=O)N[C@@H](CC(C)C)C(=O)N[C@@H](CC(C)C)C(=O)N[C@H](C(=O)N[C@@H](CC(=O)O)C(=O)N[C@@H](C)C(=O)N[C@@H](CC(=O)O)C(=O)N[C@@H](CCC(=O)O)C(=O)N[C@@H](CSS[C@@H](C)[C@H](C)OC(=O)N[C@H]1CCc2c(C)c(F)cc3nc4c(c1c23)Cn1c-4cc2c(c1=O)COC(=O)[C@]2(O)CC)C(=O)NCC(=O)O)C(C)C)[C@@H](C)O)[C@@H](C)O [Compound 5] (H-AEQNPIYWARYADWLFTTPLLLLDLALLVDADEC(X4)G-OH; N-terminus and C-terminus assumed) | 0.83 nM | 0.06 nM | 0.07 nM | 0.12 nM | – | – | – | – |
| CC[C@H](C)[C@H](NC(=O)[C@@H]1CCCN1C(=O)[C@H](CC(N)=O)NC(=O)[C@H](CCC(N)=O)NC(=O)[C@H](CCC(=O)O)NC(=O)[C@H](C)N)C(=O)N[C@@H](Cc1ccc(O)cc1)C(=O)N[C@@H](Cc1c[nH]c2ccccc12)C(=O)N[C@@H](C)C(=O)N[C@@H](CCCNC(=N)N)C(=O)N[C@@H](Cc1ccc(O)cc1)C(=O)N[C@@H](C)C(=O)N[C@@H](CC(=O)O)C(=O)N[C@@H](Cc1c[nH]c2ccccc12)C(=O)N[C@@H](CC(C)C)C(=O)N[C@@H](Cc1ccccc1)C(=O)N[C@H](C(=O)N[C@H](C(=O)N1CCC[C@H]1C(=O)N[C@@H](CC(C)C)C(=O)N[C@@H](CC(C)C)C(=O)N[C@@H](CC(C)C)C(=O)N[C@@H](CC(C)C)C(=O)N[C@@H](CC(=O)O)C(=O)N[C@@H](CC(C)C)C(=O)N[C@@H](C)C(=O)N[C@@H](CC(C)C)C(=O)N[C@@H](CC(C)C)C(=O)N[C@H](C(=O)N[C@@H](CC(=O)O)C(=O)N[C@@H](C)C(=O)N[C@@H](CC(=O)O)C(=O)N[C@@H](CCC(=O)O)C(=O)N[C@@H](CSS[C@@H](C)[C@@H](C)OC(=O)N[C@H]1CCc2c(C)c(F)cc3nc4c(c1c23)Cn1c-4cc2c(c1=O)COC(=O)[C@]2(O)CC)C(=O)NCC(=O)O)C(C)C)[C@@H](C)O)[C@@H](C)O [Compound 6] (H-AEQNPIYWARYADWLFTTPLLLLDLALLVDADEC(X1)G-OH; N-terminus and C-terminus assumed) | 13.9 nM | 0.76 nM | 0.62 nM | 1 nM | – | – | – | – |
| CC[C@@]1(O)C(=O)OCc2c1cc1n(c2=O)Cc2c-1nc1cc(F)c(C)c3c1c2[C@@H](N)CC3 [R^8H-5, (10S,23S)-23-amino-10-ethyl-18-fluoro-10-hydroxy-19-methyl-8-oxa-4,15-diazahexacyclo[14.7.1.02,14.04,13.06,11.020,24]tetracosa-1,6(11),12,14,16(24),17,19-heptaene-5,9-dione; methanesulfonic acid, reference compound] | – | – | – | – | 0.13 nM | 0.04 nM | 0.12 nM | 0.05 nM |
